Assay results: patent US20220402935A1, “HETEROCYCLIC COMPOUND” (FIMECS, INC., priority 2019, published 2022)

Tests used:
[1] = molecular target: T1, human XIAP_BIR3 domain purified protein (Homo sapiens, UniProt P98170); assay: XIAP binding inhibitory activity (HTRF, b-Smac ligand); settings: for IC50: second symbol of cell, read-out: XIAP binding inhibition IC50 value
T1 construct: purchased R & D
In short: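 HTRF competition between compound and C-terminally biotinylated Smac peptide AVPIAQK for His-tagged XIAP BIR3, both diluted to 90 nM before addition, in pH 7.5 HEPES/NaCl/BSA/Triton buffer. Eu-cryptate anti-His and streptavidin-XL665 added, ≥4 h at room temperature in the dark; inhibition % from 665/615 nm ratio versus no-compound wells.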

IRAK-M = molecular target: T2, IRAK-M (Homo sapiens, UniProt Q9Y616); assay: IRAK-M binding inhibitory activity (KINOMEscan active site-dependent competitive assay); design: purchased Eurofins Discover X; settings: for remaining binding at 1 µM: concentration of the test compound 1 μM, first symbol of cell, read-out: IRAK-M binding inhibition activity % Ctrl
T2 sequence (Q9Y616 1-596): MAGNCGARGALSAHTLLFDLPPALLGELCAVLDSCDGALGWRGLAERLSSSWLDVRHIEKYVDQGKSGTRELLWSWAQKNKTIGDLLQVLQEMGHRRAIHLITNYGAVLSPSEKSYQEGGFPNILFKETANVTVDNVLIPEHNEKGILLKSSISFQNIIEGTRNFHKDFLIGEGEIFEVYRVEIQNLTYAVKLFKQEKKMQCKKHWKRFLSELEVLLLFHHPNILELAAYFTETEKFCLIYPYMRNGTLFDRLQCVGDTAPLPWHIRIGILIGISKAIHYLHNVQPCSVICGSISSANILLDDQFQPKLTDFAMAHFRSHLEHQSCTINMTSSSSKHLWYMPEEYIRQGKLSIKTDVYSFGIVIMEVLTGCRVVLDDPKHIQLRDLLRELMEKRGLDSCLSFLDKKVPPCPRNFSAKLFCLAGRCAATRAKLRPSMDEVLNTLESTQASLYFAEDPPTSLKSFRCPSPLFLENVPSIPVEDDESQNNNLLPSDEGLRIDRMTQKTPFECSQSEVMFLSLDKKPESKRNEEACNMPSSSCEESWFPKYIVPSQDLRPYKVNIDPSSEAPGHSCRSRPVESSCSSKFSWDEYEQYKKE
In short: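 Readout given as % Ctrl, with DMSO as 100% and a control compound as 0%, scaling the test compound signal between them. Binding to human IRAK-M was assessed by KINOMEscan competition at the kinase active site.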

T1 sequence (P98170 252-356 limits assumed): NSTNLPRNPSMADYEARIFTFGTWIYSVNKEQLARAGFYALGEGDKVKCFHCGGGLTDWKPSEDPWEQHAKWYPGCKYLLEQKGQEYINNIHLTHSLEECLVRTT

Compound | inhibition at 3 µM ([1]; concentration of the test compound 3 μM, first symbol of cell, read-out: XIAP binding inhibition rate) | IC50 (IRAK-M; second symbol of cell, read-out: IRAK-M binding inhibition IC50 value) | IC50 [1] | remaining binding at 1 µM (IRAK-M)
CN[C@@H](C)C(=O)N[C@H](C(=O)N1CCN(C(=O)c2cc3cc(F)ccc3n2CC(=O)N2CCOC[C@H]2COc2cc(CN3CCC(Oc4ccnc5ccsc45)CC3)on2)[C@@H](C)C1)C1CCCCC1 [Example 47, (S)-N-((S)-1-cyclohexyl-2-((S)-4-(5-fluoro-1-(2-oxo-2-((S)-3-(((5-((4-(thieno[3,2-b]pyridin-7-yloxy)piperidin-1-yl)methyl)isoxazol-3-yl)oxy)methyl)morpholino)ethyl)-1H-indole-2-carbonyl)-3-methylpiperazin-1-yl)-2-oxoethyl)-2-(methylamino)propanamide] | > 25% | 1 to 3 µM | – | –
CN[C@@H](C)C(=O)N[C@H](C(=O)N1CCN(C(=O)c2cc3c(OCCOCCOCCOc4cc(CN5CCC(Oc6ccnc7ccsc67)CC5)on4)c(F)c(F)cc3n2C)CC1)C1CCCCC1 [Example 52, (S)-N-((S)-1-cyclohexyl-2-(4-(5,6-difluoro-1-methyl-4-(2-(2-(2-((5-((4-(thieno[3,2-b]pyridin-7-yloxy)piperidin-1-yl)methyl)isoxazol-3-yl)oxy)ethoxy)ethoxy)ethoxy)-1H-indole-2-carbonyl)piperazin-1-yl)-2-oxoethyl)-2-(methylamino)propanamide] | – | – | 0.3 to 3 µM | < 25%
CN[C@@H](C)C(=O)N[C@H](C(=O)N1CCN(C(=O)c2ccc3c(c2)cc(C)n3CCOCCOCCOCCOc2cc(CN3CCC(Oc4ccnc5ccsc45)CC3)on2)CC1)C1CCCCC1 [Example 53, (S)-N-((S)-1-cyclohexyl-2-(4-(2-methyl-1-(2-(2-(2-(2-((5-((4-(thieno[3,2-b]pyridin-7-yloxy)piperidin-1-yl)methyl)isoxazol-3-yl)oxy)ethoxy)ethoxy)ethoxy)ethyl)-1H-indole-5-carbonyl)piperazin-1-yl)-2-oxoethyl)-2-(methylamino)propanamide] | – | – | 0.3 to 3 µM | < 25%
CN[C@@H](C)C(=O)N[C@H](C(=O)N1CCN(C(=O)c2ccc3c(c2)cc(C)n3CCOCCOc2cc(CN3CCC(Oc4ccnc5ccsc45)CC3)on2)CC1)C1CCCCC1 [Example 54, (S)-N-((S)-1-cyclohexyl-2-(4-(2-methyl-1-(2-(2-((5-((4-(thieno[3,2-b]pyridin-7-yloxy)piperidin-1-yl)methyl)isoxazol-3-yl)oxy)ethoxy)ethyl)-1H-indole-5-carbonyl)piperazin-1-yl)-2-oxoethyl)-2-(methylamino)propanamide] | – | – | < 0.3 µM | 25 to 50%
CN[C@@H](C)C(=O)N[C@H](C(=O)N1CCN(C(=O)c2ccc3c(c2)cc(C)n3CCOCCOCCOc2cc(CN3CCC(Oc4ccnc5ccsc45)CC3)on2)CC1)C1CCCCC1 [Example 55, (S)-N-((S)-1-cyclohexyl-2-(4-(2-methyl-1-(2-(2-(2-((5-((4-(thieno[3,2-b]pyridin-7-yloxy)piperidin-1-yl)methyl)isoxazol-3-yl)oxy)ethoxy)ethoxy)ethyl)-1H-indole-5-carbonyl)piperazin-1-yl)-2-oxoethyl)-2-(methylamino)propanamide] | – | – | 0.3 to 3 µM | 25 to 50%
CN[C@@H](C)C(=O)N[C@H](C(=O)N1CCN(C(=O)c2ccc3c(c2)cc(C)n3CCOCCOCCOc2cc(CN3CCC(Oc4ccnc5ccsc45)CC3)on2)C[C@H]1C)C1CCCCC1 [Example 56, (S)-N-((S)-1-cyclohexyl-2-((R)-2-methyl-4-(2-methyl-1-(2-(2-(2-((5-((4-(thieno[3,2-b]pyridin-7-yloxy)piperidin-1-yl)methyl)isoxazol-3-yl)oxy)ethoxy)ethoxy)ethyl)-1H-indole-5-carbonyl)piperazin-1-yl)-2-oxoethyl)-2-(methylamino)propanamide] | – | – | 0.3 to 3 µM | 50 to 75%
